# Measurements published in ChEMBL document CHEMBL1131315, “Synthesis and anticonvulsant activity of 2(3H)-benzoxazolone and 2(3H)-benzothiazolone derivatives” (J Med Chem, 1998).
# pKi: −log10 of the molar value. The source made the active and inactive calls. No cut-off for these calls is given here.
# Key:
# [1] = The compound was tested for neurologic toxicity (rotarod) test for 4 hours in mice; active at 300 mg/kg; type: organism-based; design: dose 300 mg/kg; conditions: mouse, in vivo
# [2] = The compound was tested for neurologic toxicity (rotarod) test for 30 min in mice; active at 100 mg/kg; type: organism-based; design: dose 100 mg/kg; conditions: mouse, in vivo, 0.5 h
# Mus musculus [3] = assay: The compound was tested for anticonvulsant activity in subcutaneous pentylenetetrazole seizure test (sc Met) for 4 hr in mice; active at 300 mg/kg; type: functional, organism-based; design: dose 300 mg/kg
# Mus musculus [4] = assay: The compound was tested for anticonvulsant activity in subcutaneous pentylenetetrazole seizure test (sc Met) for 30 min in mice; active at 300 mg/kg; type: functional, organism-based; design: dose 300 mg/kg
# Mus musculus [5] = assay: The compound was tested for anticonvulsant activity in Maximal electroshock seizure test (MES) for 4 hr in mice(ip); active at 100 mg/kg; type: functional, organism-based; design: dose 100 mg/kg
# Mus musculus [6] = assay: Anticonvulsant activity in Maximal electroshock seizure test at 100 mg/kg i.p. in mice.; type: functional, organism-based; design: dose 100 mg/kg
# Mus musculus [7] = assay: Inhibition of s.c. pentylenetetrazole induced seizure in mice following i.p. administration.; type: functional
# Mus musculus [8] = assay: The compound was tested to inhibit 50% of induced maximal electroshock seizure in mice on ip administration.; type: functional
# Rattus norvegicus = assay: The compound was tested for the effective oral dose to inhibit 50% of the anticonvulsant in rats.; type: functional
# Mus musculus [9] = assay: The anticonvulsant activity in subcutaneous pentylenetetrazole seizure test (sc Met) for 4 hr in mice; no activity or no toxicity at 300 mg/kg; type: functional, organism-based; design: dose 300 mg/kg
# [10] = The compound was tested for neurologic toxicity (rotarod) test for 4 hours in mice; no activity or no toxicity at 300 mg/kg; type: organism-based; design: dose 300 mg/kg; conditions: mouse, in vivo
# Mus musculus [11] = assay: Anticonvulsant activity in subcutaneous pentylenetetrazole seizure test for 30 min in mice; No activity/toxicity at 300 mg/kg.; type: functional, organism-based; design: dose 300 mg/kg
# Mus musculus [12] = assay: The compound was tested for anticonvulsant activity in Maximal electroshock seizure test (MES) for 4 hr in mice(ip); active at 300 mg/kg; type: functional, organism-based; design: dose 300 mg/kg
# [13] = (§1) The compound was determined for the dose (mg/kg) by rotarod test at the time of peak neurotoxic effect in mice on ip administration.; type: ADME, organism-based; conditions: mouse, in vivo
# Sigma 2 receptor = assay: Affinity on sigma 2 receptor using [3H]- DTG as radioligand
# [14] = The compound was tested for time of peak effect (TPE) in hours for its toxicity in mice on ip administration.; type: organism-based; conditions: mouse, in vivo
# Mus musculus [15] = assay: The compound was tested for anticonvulsant activity in Maximal electroshock seizure test for 30 min in mice(ip); active at 30 mg/kg; type: functional, organism-based; design: dose 30 mg/kg
# [16] = biological target: Sigma non-opioid intracellular receptor 1 (Homo sapiens) (UniProt Q99720); assay: Ratio between the Ki(nM)values of sigma-2 and sigma-1; type: functional
# Mus musculus [17] = assay: Time of peak effect in mice following i.p. administration.; type: functional
# Mus musculus [18] = assay: The compound was tested for anticonvulsant activity in Maximal electroshock seizure test (MES) for 4 hr in mice(ip); no activity or toxicity at 300 mg/kg; type: functional, organism-based; design: dose 300 mg/kg
# [19] = The compound was tested for neurologic toxicity (rotarod) test for 30 min in mice; no activity or no toxicity at 300 mg/kg; type: organism-based; design: dose 300 mg/kg; conditions: mouse, in vivo, 0.5 h
# Mus musculus [20] = assay: as §1; type: functional
# [21] = The compound was tested for neurologic toxicity (rotarod) test for 30 min in mice; active at 300 mg/kg; type: organism-based; design: dose 300 mg/kg; conditions: mouse, in vivo, 0.5 h
# Mus musculus [22] = assay: The compound was tested to inhibit 50% of induced maximal electroshock seizure in mice on ip administration; type: functional
# Mus musculus [23] = assay: The compound was tested to inhibit 50% of induced subcutaneous pentylenetetrazole seizure in mice on ip administration; type: functional
# Mus musculus [24] = assay: The compound was determined for the dose (mg/kg) by rotarod test at the time of peak neurotoxic effect in mice on ip administration; type: functional
# Sigma non-opioid intracellular receptor 1 (Homo sapiens), sequence (Q99720 whole entry): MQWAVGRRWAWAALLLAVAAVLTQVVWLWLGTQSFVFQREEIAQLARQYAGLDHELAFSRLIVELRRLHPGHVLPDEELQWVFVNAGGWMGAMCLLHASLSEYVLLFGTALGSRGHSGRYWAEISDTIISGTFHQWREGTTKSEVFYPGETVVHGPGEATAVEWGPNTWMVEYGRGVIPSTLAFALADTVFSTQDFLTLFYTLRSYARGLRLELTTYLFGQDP
Structure (SMILES),Rotarod toxicity [2],MES (Mus musculus [6]),ED50 (Mus musculus [7]),scMet (Mus musculus [9]),Rotarod toxicity [10],scMet (Mus musculus [11]),MES (Mus musculus [18]),also measured
CCCc1ccc2nc(O)sc2c1,active at 100 mg/kg,active at 100 mg/kg,–,–,–,–,–,Rotarod toxicity [1]: active at 100 mg/kg; scMet (Mus musculus [3]): active at 300 mg/kg; scMet (Mus musculus [4]): active at 300 mg/kg; MES (Mus musculus [5]): active at 100 mg/kg
NC(=O)N1c2ccccc2C=Cc2ccccc21 [CARBAMAZEPINE],–,–,> 100 mg/kg,–,–,–,–,ED50 (Mus musculus [8]): 8.8 mg/kg; ED50 (Rattus norvegicus): 8.5 mg/kg
CCCCC(=O)c1ccc2c(c1)oc(=O)n2CCCN1CCCCC1,active at 100 mg/kg,active at 300 mg/kg,–,No activity or no toxicity at 300 mg/kg,active at 100 mg/kg,No activity or no toxicity at 300 mg/kg,–,MES (Mus musculus [12]): active at 300 mg/kg
CCCCC(=O)c1ccc2c(c1)sc(=O)n2CCN(C)C,active at 100 mg/kg,–,> 70 mg/kg,No activity or no toxicity at 300 mg/kg,active at 100 mg/kg,No activity or no toxicity at 300 mg/kg,active at 30 mg/kg,TD50 [13]: 61.5 mg/kg; pKi (Sigma 2 receptor): 5.34; ED50 (Mus musculus [8]): 27.3 mg/kg; Toxicity [14]: 0.25 h; MES (Mus musculus [15]): active at 30 mg/kg; Ratio [16]: 7; Activity (Mus musculus [17]): 0.25 h
Cn1c(=O)oc2cc(C(=O)c3ccccc3)ccc21,–,No activity or toxicity at 300 mg/kg,–,active at 300 mg/kg,No activity or no toxicity at 300 mg/kg,–,No activity or toxicity at 300 mg/kg,scMet (Mus musculus [4]): active at 300 mg/kg; Rotarod toxicity [19]: No activity or no toxicity at 300 mg/kg
CCC(=O)c1ccc2c(c1)sc(=O)n2CCN(C)C,–,–,> 130 mg/kg,No activity or no toxicity at 300 mg/kg,–,No activity or no toxicity at 300 mg/kg,–,Rotarod toxicity [1]: active at 300 mg/kg; TD50 (Mus musculus [20]): 84.5 mg/kg; ED50 (Mus musculus [8]): 21.8 mg/kg; Toxicity [14]: 0.25 h; MES (Mus musculus [15]): active at 30 mg/kg; Rotarod toxicity [21]: active at 300 mg/kg; Activity (Mus musculus [17]): 0.25 h; MES (Mus musculus [12]): active at 30 mg/kg
CCC(=O)c1ccc2c(c1)oc(=O)n2CCN1CCCCC1,active at 100 mg/kg,No activity or toxicity at 300 mg/kg,> 100 mg/kg,No activity or no toxicity at 300 mg/kg,active at 100 mg/kg,No activity or no toxicity at 300 mg/kg,No activity or toxicity at 300 mg/kg,TD50 [13]: 72.9 mg/kg; pKi (Sigma 2 receptor): 6.05; Toxicity [14]: 0.25 h; Ratio [16]: 13; Activity (Mus musculus [17]): 0.25 h; ED50 (Mus musculus [22]): 61 mg/kg
CCCCC(=O)c1ccc2c(c1)sc(=O)n2CCN1CCOCC1,active at 100 mg/kg,active at 300 mg/kg,–,No activity or no toxicity at 300 mg/kg,–,No activity or no toxicity at 300 mg/kg,–,Rotarod toxicity [1]: active at 100 mg/kg; MES (Mus musculus [12]): active at 300 mg/kg
CCCCC(=O)c1ccc2c(c1)oc(=O)n2CCN1CCCCC1,active at 100 mg/kg,No activity or toxicity at 300 mg/kg,–,No activity or no toxicity at 300 mg/kg,active at 100 mg/kg,No activity or no toxicity at 300 mg/kg,No activity or toxicity at 300 mg/kg,–
CCC1(c2ccccc2)C(=O)NC(=O)NC1=O [PHENOBARBITAL],–,–,–,–,–,–,–,ED50 (Mus musculus [23]): 13.2 mg/kg; ED50 (Mus musculus [22]): 21.8 mg/kg; TD50 (Mus musculus [24]): 69 mg/kg
CCCC(CCC)C(=O)O [VALPROIC ACID],–,–,149 mg/kg,–,–,–,–,ED50 (Rattus norvegicus): 490 mg/kg
